Results taken from US11214803B2, “Modulators of YAP1 expression” (Ionis Pharmaceuticals, Inc., priority 2019, dated 2022).
Strand notation (5' to 3'): a small letter for the sugar, then the base; units joined by * are phosphorothioate-linked, units joined directly phosphodiester-linked; [ ] holds rarer units or linkages, { } end groups; capitals alone tell only the bases. e = 2'-O-(2-methoxyethyl) (MOE); k = constrained ethyl (cEt); [5mC] = 5-methylcytosine; d = 2'-deoxy (DNA); m = 2'-O-methyl

system: Yap1 mRNA; test: Antisense inhibition of human Yap1 in SNU-449 cells by modified oligonucleotides, single dose (Example 5, RTS36584); assay type: cell-based; settings: Table 39; SNU-449 cells, 10,000 cells per well, free uptake, 2,000 nM oligonucleotide, approx. 48 hours; RTS36584; normalized to RIBOGREEN; Yap1 mRNA relative to untreated control
How it was run: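 Plate SNU-449 cells at 10,000 per well; add 2,000 nM modified oligonucleotide without transfection reagent; after ~48 h isolate RNA, run qRT-PCR with RTS36584, normalise to RIBOGREEN and report % UTC.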

Substance	YAP1 (% UTC)
1198396 (kA*d[5mC]*dT*dT*dT*dT*dA*d[5mC]*dA*dT*dT*kA*eG*kG*eA*kA; antisense) [Compound 1198396]	25 % UTC
1198381 (kT*dA*dG*dA*dG*dT*dA*dT*dG*dT*dG*kG*e[5mC]*kA*eA*kT; antisense) [Compound 1198381]	19 % UTC
1198421 (kT*dT*dA*dT*dA*dT*dG*dG*dT*dT*dT*kT*eG*kT*eG*kT; antisense) [Compound 1198421]	36 % UTC

same assay, conditions: Table 40 (separate experiment); SNU-449 cells, 10,000 cells per well, free uptake, 2,000 nM oligonucleotide, approx. 48 hours; RTS36584; normalized to RIBOGREEN; Yap1 mRNA relative to untreated control

Substance	YAP1 (% UTC)
1198778 (kA*eT*kA*dT*dT*dG*d[5mC]*dA*dA*dT*d[5mC]*dT*eG*eT*k[5mC]*kT; antisense) [Compound 1198778]	55 % UTC
1198715 (kA*eT*kT*dG*dT*d[5mC]*dT*d[5mC]*dA*dT*dG*d[5mC]*e[5mC]*eT*kT*kA; antisense) [Compound 1198715]	33 % UTC

same assay, conditions: Table 41; SNU-449 cells, 10,000 cells per well, free uptake, 2,000 nM modified oligonucleotide, approximately 48 hours; RTS36584; normalized to RIBOGREEN; Yap1 mRNA relative to untreated control cells

Substance	YAP1 (% UTC)
1198629 (kA*kT*dT*dG*dT*d[5mC]*dT*d[5mC]*dA*dT*dG*d[5mC]*k[5mC]*eT*kT*eA; antisense) [Compound 1198629]	22 % UTC
1198677 (antisense kA*kT*dT*d[5mC]*dA*dG*dA*dT*dT*dT*dA*dG*kG*eA*kT*eG) [Compound 1198677]	87 % UTC

same assay, conditions: Table 42 (separate experiment); SNU-449 cells, 10,000 cells per well, free uptake, 2,000 nM modified oligonucleotide, approximately 48 hours; RTS36584; normalized to RIBOGREEN; Yap1 mRNA relative to untreated control cells

Substance	YAP1 (% UTC)
1198693 (antisense kA*kT*dG*dT*dA*dA*dT*dA*dT*dT*dG*d[5mC]*kA*eA*kT*e[5mC]) [Compound 1198693]	92 % UTC
1095482 (antisense k[5mC]*kT*dG*dA*dG*dG*dT*dA*dT*dA*dA*d[5mC]*kT*eG*kG*eG) [Compound 1095482]	72 % UTC

same assay, conditions: Table 43 experiment; SNU-449 cells, 10,000 cells per well, free uptake, 2,000 nM, approximately 48 hours; RTS36584; Yap1 mRNA normalized to RIBOGREEN, relative to untreated control cells

Substance	YAP1 (% UTC)
1198462 (antisense kT*kG*dG*dA*dA*dA*dT*dT*dG*dT*d[5mC]*eT*k[5mC]*eA*kT*eG) [Compound 1198462]	27 % UTC
1198464 (antisense kA*kT*dA*dT*dG*dG*dA*dA*dA*dT*dT*eG*kT*e[5mC]*kT*e[5mC]) [Compound 1198464]	41 % UTC
1198259 (kA*kA*dT*dA*dT*dT*dG*d[5mC]*dA*dA*dT*e[5mC]*eT*eG*kT*k[5mC]; antisense) [Compound 1198259]	51 % UTC
1198482 (antisense kA*k[5mC]*dT*dT*dT*dT*dA*d[5mC]*dA*dT*dT*eA*kG*eG*kA*eA) [Compound 1198482]	63 % UTC

same assay, conditions: Table 44 experiment; SNU-449 cells, 10,000 cells per well, free uptake, 2,000 nM, approximately 48 hours; RTS36584; Yap1 mRNA normalized to RIBOGREEN, relative to untreated control cells

Substance	YAP1 (% UTC)
1198503 (k[5mC]*kA*dG*dA*dT*dT*dT*dA*dG*dG*dA*eT*kG*e[5mC]*kA*eT; antisense) [Compound 1198503]	31 % UTC
1198494 (antisense kG*kT*dG*d[5mC]*dT*dT*dT*dG*dG*dA*dA*eG*kA*eT*k[5mC]*eT) [Compound 1198494]	15 % UTC
1095621 (antisense kT*kG*dA*dG*dG*dT*dA*dT*dA*dA*d[5mC]*eT*kG*eG*kG*e[5mC]) [Compound 1095621]	22 % UTC
1198515 (kA*kT*dT*dG*d[5mC]*dA*dA*dT*d[5mC]*dT*dG*eT*k[5mC]*eT*kG*eA; antisense) [Compound 1198515]	44 % UTC

same assay, conditions: Table 45; Yap1 mRNA as percent of untreated control, SNU-449 cells, single dose

Substance	YAP1 (% UTC)
1198959 (kA*kG*dT*dG*dT*dA*dT*dG*dT*d[5mC]*dA*kG*dA*kA*dG*kA; antisense) [Compound 1198959]	8 % UTC
1198915 (k[5mC]*kT*dT*dT*dT*dA*d[5mC]*dA*dT*dT*dA*kG*dG*kA*dA*k[5mC]; antisense) [Compound 1198915]	37 % UTC
1198965 (k[5mC]*kT*dT*dT*dA*dA*dA*dG*dT*dG*dT*kA*dT*kG*dT*k[5mC]; antisense) [Compound 1198965]	95 % UTC

same assay, conditions: Table 46; Yap1 mRNA as percent of untreated control, SNU-449 cells, single dose

Substance	YAP1 (% UT)
1198851 (CAGATTTAGGATGCAT; antisense; chemistry not fully specified) [Compound 1198851]	82 % UT
1198832 (kG*k[5mC]*dA*d[5mC]*dT*dT*dT*dT*dA*d[5mC]*dA*kT*eT*kA*eG*kG; antisense) [Compound 1198832]	20 % UT
1198966 (kA*kA*d[5mC]*dT*dT*dT*dA*dA*dA*dG*dT*kG*dT*kA*dT*kG) [Compound 1198966]	78 % UT
1198817 (antisense kA*kT*dT*dA*dG*dA*dG*dT*dA*dT*dG*kT*eG*kG*e[5mC]*kA) [Compound 1198817]	AksTksTdsAdsGdsAdsGdsTdsAdsTds43 % UT

same assay, conditions: Table 48; Yap1 mRNA level relative to untreated control; modified oligonucleotides targeting SEQ ID NO.: 1 and 2

Substance	YAP1 (% UT)
1197214 (antisense kA*kG*kT*dG*dT*dA*dT*dG*dT*d[5mC]*dA*dG*dA*kA*kG*kA) [Compound 1197214]	5 % UT
1198318 (kT*kT*kT*dG*dG*dA*dA*dG*dA*dT*d[5mC]*dT*kG*eA*kA*eA; antisense) [Compound 1198318]	120 % UT
1198308 (kT*kT*kT*dT*dA*d[5mC]*dA*dT*dT*dA*dG*dG*kA*eA*k[5mC]*eA; antisense) [Compound 1198308]	68 % UT
1198313 (kA*kG*k[5mC]*dA*d[5mC]*dT*dT*dT*dT*dA*d[5mC]*dA*kT*eT*kA*eG; antisense) [Compound 1198313]	31 % UT
1198301 (kT*k[5mC]*kT*dA*dT*dA*dT*dT*dA*dG*dA*dG*kT*eA*kT*eG; antisense) [Compound 1198301]	43 % UT

same assay, conditions: Table 49; Yap1 mRNA level relative to untreated control; modified oligonucleotides targeting SEQ ID NO.: 1 and 2

Substance	YAP1 (% UT)
1198558 (antisense kT*kA*kT*dA*dT*dT*dA*dG*dA*dG*dT*dA*kT*kG*kT*eG) [Compound 1198558]	46 % UT
1198355 (kA*kA*kA*dG*dT*dG*dT*dA*dT*dG*dT*d[5mC]*kA*eG*kA*eA; antisense) [Compound 1198355]	6 % UT
1095567 (antisense k[5mC]*kA*k[5mC]*dT*dG*dA*dG*dG*dT*dA*dT*dA*kA*e[5mC]*kT*eG) [Compound 1095567]	92 % UT

same assay, conditions: Table 50; Yap1 mRNA remaining as percent of untreated control (UT), SNU-449 cells, single dose

Substance	YAP1 (% UT)
1198594 (antisense k[5mC]*kT*kT*dA*dT*dA*dT*dG*dG*dT*dT*dT*kT*kG*kT*eG) [Compound 1198594]	23 % UT
1197232 (antisense kA*kT*kA*dT*mG*dG*dA*dA*dA*dT*dT*dG*dT*k[5mC]*kT*k[5mC]) [Compound 1197232]	55 % UT

same assay, conditions: Table 51; Yap1 mRNA remaining as percent of untreated control (UT), SNU-449 cells, single dose

Substance	YAP1 (% UT)
1200801 (kT*k[5mC]*kT*dA*dT*mA*dT*dT*dA*dG*dA*dG*dT*kA*kT*kG; antisense) [Compound 1200801]	77 % UT
1197258 (antisense kA*kT*kT*d[5mC]*mA*dG*dA*dT*dT*dT*dA*dG*dG*kA*kT*kG) [Compound 1197258]	57 % UT
1197273 (kT*kA*kA*dG*mG*dT*dT*dT*d[5mC]*d[5mC]*d[5mC]*dA*dG*kA*kT*kT) [Compound 1197273]	68 % UT

same assay, conditions: Table 52; Yap1 mRNA, modified oligonucleotides targeting SEQ ID NO: 1 and 2

Substance	YAP1 (% UT)
1200818 (kA*kA*kG*d[5mC]*dA*mC*dT*dT*dT*dT*dA*d[5mC]*dA*kT*kT*kA; antisense) [Compound 1200818]	31 % UT
1200810 (kA*kA*k[5mC]*dA*d[5mC]*mU*dG*dA*dG*dG*dT*dA*dT*kA*kA*k[5mC]; antisense) [Compound 1200810]	94 % UT
1200826 (kG*kT*kG*d[5mC]*dT*mU*dT*dG*dG*dA*dA*dG*dA*kT*k[5mC]*kT; antisense) [Compound 1200826]	26 % UT
1200816 (kG*k[5mC]*kA*d[5mC]*dT*mU*dT*dT*dA*d[5mC]*dA*dT*dT*kA*kG*kG; antisense) [Compound 1200816]	37 % UT
1200860 (kT*kA*kA*dA*dG*mU*dG*dT*dA*dT*dG*dT*d[5mC]*kA*kG*kA; antisense) [Compound 1200860]	16 % UT
1200869 (k[5mC]*kT*kA*dA*dG*mU*dA*dA*dG*dG*dT*dT*dT*k[5mC]*k[5mC]*k[5mC]; antisense) [Compound 1200869]	25 % UT

same assay, conditions: Yap1 mRNA, percent of untreated control; modified oligonucleotides targeting SEQ ID NO: 1 and 2; Table 47

Substance	YAP1 (% UT)
1197212 (antisense kT*kT*kT*dA*dT*dG*dT*dA*dA*dT*dA*dT*dT*kG*k[5mC]*kA) [Compound 1197212]	55 % UT
1197192 (antisense kA*kT*kA*dG*dT*dG*d[5mC]*dT*dT*dT*dG*dG*dA*kA*kG*kA) [Compound 1197192]	39 % UT
1197207 (antisense kA*kA*kT*dA*dT*dT*dG*d[5mC]*dA*dA*dT*d[5mC]*dT*kG*kT*k[5mC]) [Compound 1197207]	51 % UT
1197196 (antisense k[5mC]*kA*kG*dA*dT*dT*dT*dA*dG*dG*dA*dT*dG*k[5mC]*kA*kT) [Compound 1197196]	27 % UT
1197180 (antisense kA*kT*kG*dG*dA*dA*dA*dT*dT*dG*dT*d[5mC]*dT*k[5mC]*kA*kT) [Compound 1197180]	47 % UT
